From PMC8447253 (2021)

Tests used:
Assay in all cases: emission titration (737 nm), Bard equation
Settings in all cases: K+ (50 mM potassium phosphate), pH 7, enantiomer by table order, per base
[1] = test system: d(CGCGAATTCGCG)2 (DNA, duplex) CGCGAATTCGCG
[2] = test system: d(ATTATTATTATATTA)/d(TAATATAATAATAAT) (AT DNA) (DNA, duplex) ATTATTATTATATTA/TAATATAATAATAAT
[3] = test system: d(GCGCGCGCGC)2; (GC)5 (DNA, duplex) GCGCGCGCGC
[4] = test system: d(CGCAAATTTGCG)2 (DNA, duplex) CGCAAATTTGCG

For `Cc1cnc2c(ccc3c(C)c(C)cnc32)c1C.Cc1cnc2c(ccc3c(C)c(C)cnc32)c1C.[Cr+3].c1ccc2nc3c4cccnc4c4ncccc4c3nc2c1`, the KDNA ([1]; site size n 1.6 ± 0.1 base pairs) was 1.4e+06 M⁻¹, the KDNA ([1]; site size n 1.7 ± 0.1 base pairs) was 510000 M⁻¹ and the KDNA ([2]; site size n 2.25 ± 0.05 base pairs) was 4e+06 M⁻¹. The KDNA ([2]; site size n 2.28 ± 0.05 base pairs) was 3e+06 M⁻¹, the KDNA ([3]; site size n 3.1 ± 0.1 base pairs) was 770000 M⁻¹ and the KDNA ([3]; site size n 4.8 ± 0.2 base pairs) was 610000 M⁻¹. It also gave a KDNA ([4]; site size n 1.92 ± 0.04 base pairs) of 1.7e+06 M⁻¹ and a KDNA ([4]; site size n 2.10 ± 0.09 base pairs) of 480000 M⁻¹.
